Data taken from patent publication US20230233569A1 (Revolution Medicines, Inc., priority 2020, published 2023).

Experiments:
[1] = test system: AsPC-1 (K-Ras G12D); experiment: Potency assay: pERK; assay type: cell-based; settings: Homo sapiens, ASPC1, read-out: pERK EC50
[2] = molecular target: KRAS G13D (Homo sapiens, UniProt P01116+P62937, G13D); experiment: Ras-Raf disruption / FRET / MOA assay (BRAF RBD); assay type: biochemical; settings: KRAS G13D FRET data IC50, Ras-Raf disruption, with Cyclophilin A
Procedure, shortened: (§1)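 Compound-induced Ras–Cyclophilin A ternary complex disrupting BRAF RBD binding, read as IC50 from reduced TR-FRET ratio relative to DMSO. Final: Ras-GMPPNP 12.5 nM, BRAF RBD 50 nM, Cyclophilin A 25 μM, top compound 30 μM (3-fold, 10 points); 3 h at 25 °C, then 1.5 h with detection antibodies.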

[3] = molecular target: KRAS G12V (Homo sapiens, UniProt P01116+P62937, G12V); experiment: Ras-Raf disruption / FRET / MOA assay (BRAF RBD); assay type: biochemical; settings: KRAS G12V FRET data IC50, Ras-Raf disruption, with Cyclophilin A
Procedure, shortened: as §1

[4] = molecular target: NRAS Q61R (Homo sapiens, UniProt P01111+P62937, Q61R); experiment: Ras-Raf disruption / FRET / MOA assay (BRAF RBD); assay type: biochemical
Procedure, shortened: as §1

[5] = molecular target: NRAS WT (Homo sapiens, UniProt P01111+P62937); experiment: Ras-Raf disruption / FRET / MOA assay (BRAF RBD); assay type: biochemical
Procedure, shortened: as §1

[6] = molecular target: NRAS G12C (Homo sapiens, UniProt P01111+P62937, G12C); experiment: Ras-Raf disruption / FRET / MOA assay (BRAF RBD); assay type: biochemical; settings: NRAS G12C FRET data IC50, NRAS G12C
Procedure, shortened: as §1

[7] = molecular target: KRAS G12D (Homo sapiens, UniProt P01116+P62937, G12D); experiment: Ras-Raf disruption / FRET / MOA assay (BRAF RBD); assay type: biochemical; settings: KRAS G12D FRET data IC50, Ras-Raf disruption, with Cyclophilin A
Procedure, shortened: as §1

[8] = molecular target: KRAS G13C (Homo sapiens, UniProt P01116+P62937, G13C); experiment: Ras-Raf disruption / FRET / MOA assay (BRAF RBD); assay type: biochemical; settings: KRAS G13C FRET data IC50, Ras-Raf disruption, with Cyclophilin A
Procedure, shortened: as §1

[9] = molecular target: KRAS WT (Homo sapiens, UniProt P01116+P62937); experiment: Ras-Raf disruption / FRET / MOA assay (BRAF RBD); assay type: biochemical; settings: KRAS WT FRET data IC50, Ras-Raf disruption, with Cyclophilin A
Procedure, shortened: as §1

[10] = molecular target: NRAS Q61K (Homo sapiens, UniProt P01111+P62937, Q61K); experiment: Ras-Raf disruption / FRET / MOA assay (BRAF RBD); assay type: biochemical
Procedure, shortened: as §1

[11] = molecular target: KRAS Q61H (Homo sapiens, UniProt P01116+P62937, Q61H); experiment: Ras-Raf disruption / FRET / MOA assay (BRAF RBD); assay type: biochemical
Procedure, shortened: as §1

[12] = molecular target: KRAS G12S (Homo sapiens, UniProt P01116+P62937, G12S); experiment: Ras-Raf disruption / FRET / MOA assay (BRAF RBD); assay type: biochemical; settings: KRAS G12S FRET data IC50, Ras-Raf disruption, with Cyclophilin A
Procedure, shortened: as §1

[13] = molecular target: KRAS G12C (Homo sapiens, UniProt P01116+P62937, G12C); experiment: Ras-Raf disruption / FRET / MOA assay (BRAF RBD); assay type: biochemical; settings: KRAS G12C FRET data IC50, Ras-Raf disruption, with Cyclophilin A
Procedure, shortened: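 TR-FRET read-out after 1.5 h with anti-His Eu-W1024 (10 nM) and anti-GST APC (50 nM), following 3 h at 25 °C of compound (top 30 μM, 3-fold, 10 points) with 25 μM Cyclophilin A, 12.5 nM GMPPNP-loaded K-Ras G12C and 50 nM BRAF RBD; IC50 reported.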

[14] = test system: AsPC-1 (K-Ras G12D); experiment: CellTiter-Glo cell viability assay; assay type: cell-based; settings: Homo sapiens, ASPC1, 120 h, read-out: AsPC-1 Cell Viability assay data IC50, K-Ras G12D, 5-day treatment
Procedure, shortened: (§2)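 Cells already in plates received compound by direct dispensing. After incubation to day 5, plates sat at room temperature roughly 30 minutes, then ATP-based luminescence was measured and values derived from a four-parameter fit of DMSO-normalized data.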

[15] = test system: NCI-H358 (K-Ras G12C); experiment: CellTiter-Glo cell viability assay; assay type: cell-based; settings: Homo sapiens, NCI-H358, 120 h, read-out: H358 Cell Viability assay data IC50, K-Ras G12C, 5-day treatment
Procedure, shortened: as §2

Chain of KRAS G13C (P01116 1-169 isoform P01116-2 G13C limits assumed): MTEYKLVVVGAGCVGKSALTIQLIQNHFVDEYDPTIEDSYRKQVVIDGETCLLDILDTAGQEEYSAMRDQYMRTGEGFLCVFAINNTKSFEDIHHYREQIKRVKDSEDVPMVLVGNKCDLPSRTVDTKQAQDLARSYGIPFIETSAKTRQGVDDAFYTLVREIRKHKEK
Chain of KRAS G13C (P62937 whole entry): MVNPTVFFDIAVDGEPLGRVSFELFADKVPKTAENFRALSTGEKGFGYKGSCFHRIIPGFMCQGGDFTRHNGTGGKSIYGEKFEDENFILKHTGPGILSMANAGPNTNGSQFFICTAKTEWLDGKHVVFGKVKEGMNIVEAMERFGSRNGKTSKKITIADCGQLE
Chain of KRAS G12V (P01116 1-169 isoform P01116-2 G12V limits assumed): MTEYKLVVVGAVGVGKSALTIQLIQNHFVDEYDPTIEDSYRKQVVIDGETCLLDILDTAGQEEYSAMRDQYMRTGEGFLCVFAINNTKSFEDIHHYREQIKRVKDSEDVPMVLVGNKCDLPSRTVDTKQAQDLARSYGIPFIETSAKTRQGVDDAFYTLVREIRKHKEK
Chain of KRAS G12V (P62937 whole entry): as the sequence (P62937 whole entry) above
Chain of KRAS G12S (P01116 1-169 isoform P01116-2 G12S limits assumed): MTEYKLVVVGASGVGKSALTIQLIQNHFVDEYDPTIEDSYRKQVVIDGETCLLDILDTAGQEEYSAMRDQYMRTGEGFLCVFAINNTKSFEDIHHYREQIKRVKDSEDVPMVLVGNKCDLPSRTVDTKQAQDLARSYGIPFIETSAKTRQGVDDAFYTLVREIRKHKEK
Chain of KRAS G12S (P62937 whole entry): as the sequence (P62937 whole entry) above
Chain of KRAS WT (P01116 1-169 isoform P01116-2 limits assumed): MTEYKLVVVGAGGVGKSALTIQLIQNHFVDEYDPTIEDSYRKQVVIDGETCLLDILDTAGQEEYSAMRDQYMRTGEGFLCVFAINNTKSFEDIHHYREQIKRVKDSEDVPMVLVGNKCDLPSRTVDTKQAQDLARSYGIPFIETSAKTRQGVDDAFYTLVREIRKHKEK
Chain of KRAS WT (P62937 whole entry): as the sequence (P62937 whole entry) above
Chain of KRAS G12D (P01116 1-169 isoform P01116-2 G12D limits assumed): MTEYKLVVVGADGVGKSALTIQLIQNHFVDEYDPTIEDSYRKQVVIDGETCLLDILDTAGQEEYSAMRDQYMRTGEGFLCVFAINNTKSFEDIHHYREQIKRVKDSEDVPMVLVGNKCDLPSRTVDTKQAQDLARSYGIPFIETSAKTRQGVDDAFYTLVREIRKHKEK
Chain of KRAS G12D (P62937 whole entry): as the sequence (P62937 whole entry) above
Chain of NRAS G12C (P01111 whole entry G12C): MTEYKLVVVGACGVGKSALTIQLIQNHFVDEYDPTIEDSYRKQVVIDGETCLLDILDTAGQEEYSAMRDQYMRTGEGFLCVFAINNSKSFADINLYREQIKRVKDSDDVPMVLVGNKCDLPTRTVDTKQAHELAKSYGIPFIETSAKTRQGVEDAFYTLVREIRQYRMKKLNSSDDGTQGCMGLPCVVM
Chain of NRAS G12C (P62937 whole entry): as the sequence (P62937 whole entry) above
Chain of KRAS G13D (P01116 1-169 isoform P01116-2 G13D limits assumed): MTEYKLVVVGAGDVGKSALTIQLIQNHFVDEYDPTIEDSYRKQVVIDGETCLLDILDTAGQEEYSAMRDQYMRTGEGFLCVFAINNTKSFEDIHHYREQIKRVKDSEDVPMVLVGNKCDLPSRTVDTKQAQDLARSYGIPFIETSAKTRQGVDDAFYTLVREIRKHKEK
Chain of KRAS G13D (P62937 whole entry): as the sequence (P62937 whole entry) above
Chain of NRAS Q61K (P01111 whole entry Q61K): as the sequence (P01111 whole entry G12C) above, with C12G, Q61K counted along it
Chain of NRAS Q61K (P62937 whole entry): as the sequence (P62937 whole entry) above
Chain of KRAS G12C (P01116 1-169 isoform P01116-2 G12C limits assumed): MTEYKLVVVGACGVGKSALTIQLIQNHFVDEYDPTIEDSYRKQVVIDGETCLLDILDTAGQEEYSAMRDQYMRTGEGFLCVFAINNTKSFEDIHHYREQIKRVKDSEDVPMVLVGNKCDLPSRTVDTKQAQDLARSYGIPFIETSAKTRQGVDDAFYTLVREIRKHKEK
Chain of KRAS G12C (P62937 whole entry): as the sequence (P62937 whole entry) above
Chain of NRAS WT (P01111 whole entry): as the sequence (P01111 whole entry G12C) above, with C12G counted along it
Chain of NRAS WT (P62937 whole entry): as the sequence (P62937 whole entry) above
Chain of KRAS Q61H (P01116 1-169 isoform P01116-2 Q61H limits assumed): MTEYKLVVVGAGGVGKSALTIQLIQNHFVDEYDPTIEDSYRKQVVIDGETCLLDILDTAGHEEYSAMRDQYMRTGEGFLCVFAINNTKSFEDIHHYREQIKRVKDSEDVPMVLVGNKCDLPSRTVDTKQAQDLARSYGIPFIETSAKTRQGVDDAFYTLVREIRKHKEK
Chain of KRAS Q61H (P62937 whole entry): as the sequence (P62937 whole entry) above
Chain of NRAS Q61R (P01111 whole entry Q61R): as the sequence (P01111 whole entry G12C) above, with C12G, Q61R counted along it
Chain of NRAS Q61R (P62937 whole entry): as the sequence (P62937 whole entry) above

| Structure (SMILES) | EC50 [1] [µM] | IC50 [2] [nM] | IC50 [3] [nM] | IC50 [4] [nM] | IC50 [5] [nM] | IC50 [6] [nM] | IC50 [7] [nM] | IC50 [8] [nM] | IC50 [9] [nM] | IC50 [10] [nM] | IC50 [11] [nM] | IC50 [12] [nM] | IC50 [13] [nM] | IC50 [14] [nM] | IC50 [15] [nM] |
| --- | --- | --- | --- | --- | --- | --- | --- | --- | --- | --- | --- | --- | --- | --- | --- |
| CCn1c(-c2cccnc2[C@H](C)OC)c2c3cc(ccc31)-c1cc(O)cc(c1)C[C@H](NC(=O)[C@H](C(C)C)N(C)C(=O)CN(C)C(=O)[C@@H]1N[C@H]1C(F)(F)F)C(=O)N1CCC[C@H](N1)C(=O)OCC(C)(C)C2 [Example 260] | < 5 | 10 to 100 | 10 to 100 | 100 to 1000 | 10 to 100 | 10 to 100 | 10 to 100 | < 10 | 10 to 100 | 10 to 100 | 10 to 100 | 10 to 100 | 10 to 100 | 100 to 1000 | 10 to 100 |
| CCn1c(-c2cccnc2[C@H](C)OC)c2c3cc(ccc31)-c1cc(O)cc(c1)C[C@H](NC(=O)[C@H](C(C)C)N(C)C(=O)CN(C)C(=O)[C@]1(C)CN1)C(=O)N1CCC[C@H](N1)C(=O)OCC(C)(C)C2 [Example 257] | < 5 | 10 to 100 | 10 to 100 | 100 to 1000 | 10 to 100 | 10 to 100 | 100 to 1000 | < 10 | 10 to 100 | 100 to 1000 | 10 to 100 | 10 to 100 | 10 to 100 | 100 to 1000 | 10 to 100 |
| CC[C@H]1N[C@H]1C(=O)N(C)CC(=O)N(C)[C@H](C(=O)N[C@H]1Cc2cc(O)cc(c2)-c2ccc3c(c2)c(c(-c2cccnc2[C@H](C)OC)n3CC)CC(C)(C)COC(=O)[C@@H]2CCCN(N2)C1=O)C(C)C [Example 262] | < 5 | 10 to 100 | 10 to 100 | 100 to 1000 | 10 to 100 | 10 to 100 | 100 to 1000 | 10 to 100 | 10 to 100 | 100 to 1000 | 10 to 100 | 10 to 100 | 10 to 100 | 100 to 1000 | 10 to 100 |
| CCn1c(-c2cccnc2[C@H](C)OC)c2c3cc(ccc31)-c1cc(O)cc(c1)C[C@H](NC(=O)[C@H](C(C)C)N(C)C(=O)CNC(=O)[C@@H]1N[C@@H]1C1CC1)C(=O)N1CCC[C@H](N1)C(=O)OCC(C)(C)C2 [Example 141] | < 5 | 100 to 1000 | 10 to 100 | 100 to 1000 | 10 to 100 | 10 to 100 | 10 to 100 | 10 to 100 | 10 to 100 | 100 to 1000 | 10 to 100 | 10 to 100 | 10 to 100 | 100 to 1000 | 100 to 1000 |
| CCn1c(-c2cccnc2[C@H](C)OC)c2c3cc(ccc31)-c1cc(O)cc(c1)C[C@H](NC(=O)[C@H](C(C)C)N(C)C(=O)CN(C)C(=O)[C@H]1CN1CC(=O)N(C)C)C(=O)N1CCC[C@H](N1)C(=O)OCC(C)(C)C2 (stereo partly drawn) [Example 270] | < 5 | 100 to 1000 | 100 to 1000 | 1000 to 10000 | 100 to 1000 | < 10 | 100 to 1000 | 10 to 100 | 100 to 1000 | 1000 to 10000 | 100 to 1000 | 10 to 100 | < 10 | 100 to 1000 | 10 to 100 |
| CCn1c(-c2cccnc2[C@H](C)OC)c2c3cc(ccc31)-c1cc(O)cc(c1)C[C@H](NC(=O)[C@H](C(C)C)N(C)C(=O)CN(C)C(=O)[C@@]1(C)CN1)C(=O)N1CCC[C@H](N1)C(=O)OCC(C)(C)C2 [Example 256] | < 5 | 10 to 100 | 10 to 100 | 100 to 1000 | 10 to 100 | 10 to 100 | 10 to 100 | < 10 | 10 to 100 | 100 to 1000 | 10 to 100 | 10 to 100 | 10 to 100 | 100 to 1000 | 10 to 100 |
